Data on six compounds can be found in paper PMC9563815, “Overcoming high level adenosine-mediated immunosuppression by DZD2269, a potent and selective A2aR antagonist” (Journal of Experimental & Clinical Cancer Research : CR, 2022).

Usually IC50 stands for the concentration at which inhibition is half-maximal.

For one data set, the target named is T1, A2aR (Homo sapiens, UniProt P29274).
T1 construct: host or cells: CHO
In words: cAMP accumulation assay (HTRF) in CHO-A2aR cells. It is filed as cell-based.

Data set [1] has as its system CREB phosphorylation in T cells. The experiment in a line: pCREB signaling inhibition assay, ex vivo human whole blood T cells. It is filed as cell-based. The conditions noted are these: for IC50: Homo sapiens, T-cell, read-out: IC50, block of CREB phosphorylation in CD4+ T cells; for pCREB at the highest concentration tested: 10 µM antagonist. As for the experimental part: Whole blood samples from three different healthy donors were collected and seeded in 96-well deep plates at a concentration of 90 µL/well. […] Cells were then lysed and fixed with BD Lyse/Fix Buffer (BD Bioscience, 558,049) for 15 min at 37 °C. After washed twice with DPBS (Hyclone, SH30028.02), the cells were centrifuged at 600 × g for 8 min. Cells were permeabilized by slow addition of BD Phosflow™ Perm Buffer III (BD Bioscience, 55,805) and incubated on ice for 60 min, and then resuspended in DPBS and stained with anti-CD3, anti-CD4, anti-CD8, and anti-pCREB (Ser133) antibodies for 1 h at room temperature in the dark. Cells were then washed twice and acquired on a flow cytometric (BD FACSCanto™ II) with DIVA software (BD Biosciences). The reported pCREB signal is the mean fluorescent intensity (MFI).
For ex vivo pCREB assessment, whole blood samples were collected from healthy donors, plated at 90 µL/well in 96-well deep plates, and pre-incubated with DZD2269 at 37 °C for 30 min.

Data set [2] relates to monocyte-derived dendritic cells. In words: DC maturation assay (CD83). It is filed as cell-based, human. Conditions: LPS-stimulated iDCs, 10 µM NECA. The protocol: Monocytes were isolated from human PBMCs using untouched human monocytes kit (Invitrogen, #11350D) according to the manufacturer instruction. Isolated monocytes were cultured with 100 ng/ml GM-CSF (R&D, 215-GM) and 50 ng/ml IL-4 (R&D, 204-IL) supplemented every 2 days. On day 5, 100 ng/ml LPS (Sigma, L4391) was added for 48 h to stimulate DC maturation. […] CD83 was measured as DC maturation marker by flow cytometry, and the gating strategy is shown in supplemental Fig. S2. Data were analyzed with FlowJo software.

The next data set has as its system activated human PBMCs. The experiment in a line: PBMC cytokine release assay (IL-2, IFN-γ, TNF-α). It is filed as cell-based. Conditions: NECA at 10 µM. The protocol: PBMCs (2 × 10^5 cells/well) were seeded in 96 well plate pre-coated with 10 ng/ml anti-CD3 antibody and stimulated with 20 ng/ml anti-CD28 antibodies to test IFN-γ and IL-2 secretion) or stimulated with 100 ng/ml LPS for TNF-α detection. […] Cell supernatants were collected at 24 h (IL-2 and TNF-α) and 72 h (IFN-γ) post-stimulation. IL-2 (R&D, S2050), IFN-γ (R&D, SIF50) and TNF-α (eBioscience, 88-7346-88) ELISA kits were used for measurement.

In data set [3] the test system is CREB phosphorylation in CD3+ T cells. The experiment in a line: CREB phosphorylation assay in whole blood. The data set is classed as cell-based. The conditions noted are these: human whole blood, up to 100 µM.
Method: Whole blood samples from three different healthy donors were collected and seeded in 96-well deep plates at a concentration of 90 µL/well. […] After washed twice with DPBS (Hyclone, SH30028.02), the cells were centrifuged at 600 × g for 8 min. […] Cells were then washed twice and acquired on a flow cytometric (BD FACSCanto™ II) with DIVA software (BD Biosciences). The reported pCREB signal is the mean fluorescent intensity (MFI).
Details of data set [4]: method as in PMID 24835328, PMID 32685154. The conditions noted are these: cited from earlier work.
Another data set concerns Pan02 tumors. In words: Pan02 pancreatic subcutaneous syngeneic model. It is filed as in vivo, C57BL/6 mice. Conditions: oxaliplatin 10 mg/kg alone or DZD2269 3 mg/kg alone. The protocol: B16F10, RM-1 and Pan02 cells were harvested and suspended in DPBS. Single-cell suspensions of greater than 90% viability were used for injection. Tumor cells were injected subcutaneously in the left flank of the C57BL/6 mice with a total cell number of 2 × 10^6 (B16F10 and RM-1) and 1 × 10^7 cells (Pan02) in a volume of 0.1 ml. Tumor-bearing mice were randomized into treatment groups when the mean tumor volume reached 40 to 100 mm^3. Mice were then treated with vehicle or compounds starting the day after randomization, and tumor volume and body weight were measured twice a week. Tumor growth inhibition from the onset of treatment was assessed by comparing the mean change in tumor volume between control and treatment groups and expressed as tumor growth inhibition. Tumor nodules were measured two-dimensionally with calipers, and tumor volumes were calculated using the following formula: tumor volume (TV) = (length × width^2) × 0.52.
Tumor tissues were collected at the end of the study. […] Positive cell percentage of stained IHC slides was quantified with a HALO image analysis platform (Indica Labs).
Fig. 4 DZD2269 enhances the efficacy of radiotherapy (RT) in syngeneic mouse in vivo models. […] (A) IFN-γ in supernatant was measured 72 h after co-culture. (B) IL-2 in supernatant was measured 24 h after co-culture. […] Infiltrated CD8 + and CD4 + T cells were determined by IHC. […]

T1 sequence (P29274 whole entry): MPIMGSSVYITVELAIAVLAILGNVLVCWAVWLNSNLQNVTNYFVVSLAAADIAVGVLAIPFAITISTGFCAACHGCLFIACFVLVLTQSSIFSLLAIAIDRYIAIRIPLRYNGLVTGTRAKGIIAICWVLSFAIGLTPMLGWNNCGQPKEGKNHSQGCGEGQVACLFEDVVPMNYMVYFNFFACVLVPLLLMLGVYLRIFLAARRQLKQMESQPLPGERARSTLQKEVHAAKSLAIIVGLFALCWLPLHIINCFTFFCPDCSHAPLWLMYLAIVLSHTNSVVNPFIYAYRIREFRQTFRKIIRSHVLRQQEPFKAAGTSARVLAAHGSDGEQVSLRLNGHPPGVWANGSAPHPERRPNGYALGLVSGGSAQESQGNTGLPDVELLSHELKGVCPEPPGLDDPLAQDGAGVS
Method for A2aR: CHO cells stably expressing human adenosine receptors (CHO-A2aR, CHO-A2bR, CHO-A1R and CHO-A3R) were purchased from GenScript. […] All CHO cells were cultured in Ham’s F12K medium (Gibco) with 10% FBS (Gibco) and RM-1 in DMEM (Gibco) medium with 10% FBS. […] All other cells were cultured without antibiotics. All cells were maintained and propagated in a humidified incubator at 37 °C, 5% CO2.
Assays were performed with HTRF cAMP kit (Cisbio, 62AM4PEJ). […] CHO-A2aR and CHO-A2bR cells were seeded in the plates at a density of 5,000 cells/well in F-12 medium containing 10% FBS. […] The dose-response curves were fitted by nonlinear regression using GraphPad Prism.

Turning to `Cc1c(C#N)cccc1-c1cc(-c2cn(Cc3cccc(C(C)(C)O)n3)nn2)nc(N)n1` [AB928], the IC50 is 4.1 ± 1.2 nM against A2aR (stimulated with 0.1 µM NECA); 3.4 ± 0.92 nM against A2aR (stimulated with 1 µM adenosine); 408 ± 25 nM at A2aR (stimulated with 10 µM NECA); 463 ± 90 nM against A2aR (stimulated with 100 µM adenosine); 130 nM in data set [1]. In addition, the “Concentration that brings pCREB to the control level” value in data set [1] (human whole blood, 10 µM NECA) was “over 1,000 nM”. Moreover, the “Relief of NECA inhibition of DC maturation (CD83)” value in data set [2] is “did not relieve the inhibitory effect”.
For the compound `Cc1cc(-c2nnc(N)nc2-c2ccc(F)cc2)cc(Cl)n1` [AZD4635], in data set [1] (human whole blood, 10 µM NECA), the “pCREB at the highest concentration tested” value is recorded as “failed to bring pCREB to the baseline (control) level”. Moreover, the IC50 in data set [1] was over 1000 nM.
In the same order, the values of `Cc1ccc(-c2nc(N)nc3c2nnn3Cc2cccc(CO[C@H]3CCOC3)n2)o1` [CPI-444] are “failed to bring pCREB to the baseline (control) level” and over 1000 nM.
As to `CCNC(=O)[C@H]1O[C@@H](n2cnc3c(N)ncnc32)[C@H](O)[C@@H]1O` [NECA, 5′-N-ethylcarboxamide adenosine], the “IL-2, IFN-γ and TNF-α production” value in the data set on activated human PBMCs is on record as “completely blocked”. The “CREB phosphorylation in CD3+ T cells” value in data set [3] was “stimulated CREB phosphorylation in a concentration dependent manner”.
With `Nc1ncnc2c1ncn2[C@@H]1O[C@H](CO)[C@@H](O)[C@H]1O` [adenosine], the “Biological half-life in human blood” value in data set [4] was “less than 10 s”.
On to `O=C1[O][Pt]2([NH][C@@H]3CCCC[C@H]3[NH]2)[O]C1=O` [oxaliplatin, Oxaliplatin], for which the “Anti-tumor effect, single agent” value in the data set on Pan02 tumors is recorded as “showed some anti-tumor effect”.
